Laboratory results taken from publication PMC8308845, “Discovery of Novel Chemical Series of OXA-48 β-Lactamase Inhibitors by High-Throughput Screening” (Pharmaceuticals, 2021).
Where two headings read alike, the source gives them in different places.

Legend:
[1] = target: T1, OXA-48 (Klebsiella pneumoniae, UniProt Q6XEC0); assay: Dilution after preincubation of OXA-48 with inhibitors; assay type: biochemical
T1 construct: made in house; host or cells: E. coli BL21(DE3), T7 expression system
Protocol: To confirm the reversibility of OXA-48 inhibition by compounds ID1 and ID2, dilution-after-preincubation tests were also performed. Specifically, the experiments were conducted by preincubating (0 and 60 min) five-fold concentrated test compounds and OXA-48 enzyme, next diluting (1:5) the assay well to the standard reaction conditions and adding the nitrocefin substrate. In parallel, a control experiment with compounds ID1 and ID2 tested under the standard protocol was also run. Based on the assay design, reversible inhibitors are expected to regain enzyme activity after dilution of the enzyme-inhibitor (EI) complex and show no significant difference between AC50 values from samples preincubated under high-concentration and standard conditions. Conversely, irreversible inhibitors are envisaged not to recover any enzyme activity following dilution of the tight EI complex, which will translate in a […] in OXA-48 AC50 of high-concentration preincubated samples.
In order to validate the results obtained in the time-dependent inhibition assay, dose–response curves of reference inhibitor tazobactam, test compounds and enzyme mix were prepared as above described and 5-fold concentrated. Compounds (20 μL of 10X compounds) and enzyme (10 μL 20X enzyme in order to have a 0.0014 ng/µL OXA-48 final concentration) were preincubated for a time period of 60 min with the selected compounds and 90 min with tazobactam. The preincubation time was identified in the time-dependent inhibition experiment as suitable to detect a shift of the IC50 value. At the end of preincubation, the mix was diluted 1:5 times to restore the standard assay conditions as described for time-dependent inhibition. The reactions were started by transferring of 15 μL of enzyme-compounds or control diluted from preincubation plate into assay plate and adding 5 μL 4X nitrocefin substrate (25 µM final concentration) after 60 or 90 min. In parallel, a control experiment was assembled under the same conditions, but omitting the preincubation time between compounds and OXA-48.
a. If the AC50 value observed in the standard assay conditions was substantially unaffected by the preincubation with the 5X samples, the corresponding compound was classified as putative reversible inhibitor.

[2] = target: T1, OXA-48; assay: Apparent Km and Vmax of nitrocefin with inhibitor; Ki and α determination; assay type: biochemical; conditions: for type of reversible inhibition: Lineweaver–Burk plots, with respect to nitrocefin; for α value: mixed model inhibition fit
Protocol: To further elucidate the type of reversible inhibition of compounds ID1 and ID2, double substrate (nitrocefin) and inhibitor titrations were run.
In this study, the characterization of the type of reversible inhibition was performed by the determination of the apparent Km and Vmax of nitrocefin in the presence of three concentrations of the selected inhibitors.
Stock AC30, AC50, and AC70 solutions for selected compounds were prepared at 200X in 100% DMSO. 2X compounds were prepared by diluting stock AC30, AC50 and AC70 solutions 1:100 in 1X reaction buffer.
20 μL of 2X compounds with 1% DMSO; 10 μL 4X enzyme (0.0014 ng/µL OXA-48 final concentration) were dispensed into preincubation plate and kept for 15′ at rt. […] Each compound ACn was tested in duplicate against each dose of nitrocefin. Compound activity was quantified on the fluorescence signal measured at 520 nm (kinetic measurement for 60 min of reaction). The initial velocity (V0) of the reaction was computed in the first 300′’ of measurements as robust slope. The slopes computed by Genedata Screener 13.0.5. were copied in GraphPad Prism (version 7.00, GraphPad Software Inc.) for the Michaelis-Menten analysis and the Lineweaver-Burk analysis. The average of slope replicates (n = 2) was transformed into double-reciprocal and linear regression analysis was applied.
a. When the Vmax value was independent from inhibitor concentration and the Km value of the substrate was directly proportional to the inhibitor concentration, the corresponding compound was assigned as competitive inhibitor.
V0 data obtained for the determination of apparent Km and Vmax of nitrocefin in the presence of three concentrations of the selected inhibitors, were used for the computation of Ki and a values using in GraphPad Prism (version 8.00, GraphPad Software Inc.) the mixed model inhibition/nonlinear regression curve fit method.

[3] = tested on: K. pneumoniae ATCC BAA-2524; assay: MIC by broth microdilution, β-lactam-resistant strain producing OXA-48; assay type: cell-based, Klebsiella pneumoniae; conditions: Klebsiella pneumoniae, ATCCBAA2524, no β-lactam, BLI tested at 32 µg/mL, read-out: MIC, BLI alone
From the text: To evaluate the capability of restoring β-lactam susceptibility, the two most promising representatives of SC_2 (ID3) and SC_7 (ID2) were screened alone and in combination with ampicillin (AMP) and IMP against sensitive and resistant Gram-negative bacteria. Avibactam and tazobactam were also included in the MIC characterization as BLI reference compounds. Specifically, we used E. coli ATCC25922 as antibiotic-sensitive strain, while E. coli ATCC BAA-2523 and K. pneumoniae ATCC BAA-2524 as β-lactam-resistant bacteria, producing OXA-48 carbapenemase.
Test compounds and tazobactam were tested at 32 µg/mL, while avibactam was applied at 4 µg/mL. […] Both antibiotics were selected for the combination study as they can be hydrolyzed by the target OXA-48 enzyme.
MIC values were determined by the broth dilution method and interpreted using published guidelines described by Clinical and Laboratory Standards Institute (CLSI).
All BLIs were dissolved in 100% DMSO and they were tested at a fixed concentration of 32 µg/mL and 1% of DMSO final concentration. Avibactam was used as reference β-lactamase inhibitor. All antimicrobials were prepared in line with CLSI susceptibility testing standards. AMP (USP # 1033000; batch no. K1M493) was dissolved at 5.12 mg/mL, IMP (USP # 1337809; batch no. R038R0) and avibactam (Biochem # NXL 104; batch no. 20180726) were dissolved at 1.28 mg/mL in the respective solvents recommended by CLSI (2). Solutions at 4X the final concentrations of the test range were made in Cation adjusted Mueller-Hinton broth (CA-MHB, BD # 212322; batch no. 6117994; Expiry date: 29.02.2020) by serial dilutions, and then diluted 2-fold with CA-MHB (for antimicrobials alone), or with the BLIs/avibactam (for combinations of new/reference inhibitors and antimicrobials). Moreover, all BLIs were tested alone at a fixed concentration of 32 μg/mL. The final concentration of DMSO in the test tubes was 1% for each different combination.
50 μL of each well were then transferred from the masterblock into 96-well plates to whom were then added 50 μL of the final inoculum. MIC tests were performed by broth microdilution in line with CLSI susceptibility testing standards. Bacterial inocula were prepared at ca. 1 × 10^6 CFU/mL by diluting 100-fold a 0.5 McFarland suspension in CA-MHB with TES (TREK Diagnostic Systems, Product code: T3462; Batch: 356347; Expiry date: 12-Jun-2019). 50 μL of antibacterial solutions at 2 × the final concentrations were diluted 2-fold with 50 μL of inoculum to give a final inoculum of ca. 5 × 10^5 CFU/mL and desired test concentrations of antibacterial agents. Test plates were incubated according to CLSI guidelines and read visually. MIC values corresponded to the first well with no visible growth.

[4] = preincubation time 0 min, concentrated compound and enzyme, diluted 1:5 before nitrocefin, read-out: OXA-48 AC50, High Dose Preincubation
[5] = preincubation time 0 min, read-out: OXA-48 AC50, Standard Preincubation
[6] = preincubation time 60 min, concentrated compound and enzyme, diluted 1:5 before nitrocefin, read-out: OXA-48 AC50, High Dose Preincubation
[7] = preincubation time 60 min, read-out: OXA-48 AC50, Standard Preincubation

T1 sequence (Q6XEC0 23-265, looked up): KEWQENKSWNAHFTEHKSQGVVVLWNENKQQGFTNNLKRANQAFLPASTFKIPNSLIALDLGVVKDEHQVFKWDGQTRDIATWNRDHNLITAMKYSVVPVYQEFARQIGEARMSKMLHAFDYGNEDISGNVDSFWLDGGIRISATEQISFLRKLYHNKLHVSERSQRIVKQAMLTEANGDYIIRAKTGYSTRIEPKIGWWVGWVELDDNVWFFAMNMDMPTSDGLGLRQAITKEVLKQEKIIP

Work on `O=C(O)c1ccc(C=Nn2c(S)nnc2-c2ccccc2)cc1` [ID1] yielded an AC50 [1, 4] of 0.63 µM, an AC50 [1, 5] of 1.73 µM and an AC50 [1, 6] of 1.09 µM. For the same molecule, the AC50 [1, 7] was 1.93 µM, the “type of reversible inhibition” value [2] was “competitive” and the α value [2] was 5.50.

`CCc1ccc(-c2n[nH]c3nc(-c4ccc(C(=O)O)cc4)cc(C(=O)O)c23)cc1` [ID2] showed an MIC [3] greater than 32 µg/mL, an AC50 [1, 4] of 1.01 µM and an AC50 [1, 5] of 2.31 µM. For the same molecule, the AC50 [1, 6] was 1.45 µM, the AC50 [1, 7] was 2.44 µM and the “type of reversible inhibition” value [2] was “competitive”. For the same molecule, the α value [2] was 5.44.

In the case of `C[C@]1(Cn2ccnn2)[C@H](C(=O)O)N2C(=O)C[C@H]2S1(=O)=O` [tazobactam, reference compound], the MIC [3] is reported as greater than 32 µg/mL, the “AC50 with concentrated preincubation relative to AC50 under standard assay protocol” value ([1]; 90 min preincubation) is reported as “almost three-fold lower” and the AC50 [1, 4] is reported as 0.79 µM. For the same molecule, the AC50 [1, 5] was 0.82 µM, the AC50 ([1]; preincubation time 90 min, concentrated compound and enzyme, diluted 1:5 before nitrocefin, read-out: OXA-48 AC50, High Dose Preincubation) was 0.097 µM and the AC50 ([1]; preincubation time 90 min, read-out: OXA-48 AC50, Standard Preincubation) was 0.26 µM.
